One test concerns the target T1, A1 adenosine receptor (Rattus norvegicus, UniProt P25099).
T1 construct: from tissue; host or cells: cerebral cortex of male Wistar rats
T1 sequence (P25099 1-326): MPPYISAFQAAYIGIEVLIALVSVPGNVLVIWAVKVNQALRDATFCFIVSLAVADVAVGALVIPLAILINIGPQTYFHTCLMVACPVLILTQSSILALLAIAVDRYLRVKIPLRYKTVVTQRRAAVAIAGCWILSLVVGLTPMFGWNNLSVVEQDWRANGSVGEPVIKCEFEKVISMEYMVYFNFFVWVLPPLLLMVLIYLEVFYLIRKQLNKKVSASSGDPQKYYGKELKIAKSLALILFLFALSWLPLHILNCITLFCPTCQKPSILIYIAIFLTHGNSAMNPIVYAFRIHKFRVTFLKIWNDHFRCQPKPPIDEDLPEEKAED
In words: Radioligand binding, [3H]DPCPX displacement in rat cortical membranes. To be noted: 0.2 nM [3H]DPCPX.

Test [1] deals with PTZ-induced seizures. Description: PTZ-induced seizures in mice. Format: in vivo. To be noted: PTZ 85 mg/kg s.c.; for seizure occurrence: all control mice seized; for latency to seizure onset prolonged by / number of seizures reduced by: vs control. The protocol:
The latency of seizure onset, number of seizures, and mortality rate was recorded for the picrotoxin-injected mice. For the PTZ-injected mice, we recorded the latency of seizure onset, number of seizures, and presence of clonic seizures.

The subject of test [2] is c-Fos expression in the hippocampus. In words: PTZ-induced c-Fos expression, western blot. In kind it is in vivo, mice. To be noted: B2 5 mg/kg + PTZ 85 mg/kg, 2 h, PTZ alone 8 times. The method, then:
Mice were injected with either B2 (5 mg/kg) or vehicle 20 min before administration of PTZ (85 mg/kg). Two hours later, mice were either anesthetized for c-Fos analysis using immunohistochemistry or decapitated or western blotting.
Mice were decapitated and the hippocampus was quickly dissected on ice. The hippocampus was then homogenized in 20 volumes of cell lysis buffer. The homogenates were incubated on ice for 15 min and centrifuged at 12000×g for 5 min at 4°C. The supernatant containing the crude nuclear extract was collected and the protein content estimated using a Bradford assay. Protein samples […] were electrophoresed in 10% SDS-PAGE at 150 V for 3 h. The samples were then electroblotted onto nitrocellulose membranes at 20 V. The membranes were blocked using 5% dry non-fat milk in 0.1% TBST solution, and incubated overnight on a shaker with anti-c-Fos rabbit antibody (SC-52g) diluted 1∶800 (Santa Cruz Biotechnology). On the following day, the blots were washed using 0.1% TBST solution and incubated for 2 h with anti-rabbit peroxidase-conjugated secondary antibody. The blots were then washed using 0.1% TBST solution. After adding super ECL plus solution, the protein bands were detected using ECL (Fuji Digital Science), as described by the manufacturer. The optical density of the intensity of the bands was measured using Gel Pro Analyzer (version 4.0).
(In general: In western blotting, separated proteins are transferred to a membrane and probed.)

In a further test the test system is PC12 cell. Also on record: method as in PMID 22242450. To be noted: cited from earlier work.
The subject of test [3] is rat adenosine A2A receptors. Details: method as in PMID 22242450. To be noted: cited from earlier work.
For another test, the target named is T2, A2A adenosine receptor (Rattus norvegicus, UniProt P30543).
T2 construct: from tissue; host or cells: striatum of male Wistar rats
T2 sequence (P30543 whole entry): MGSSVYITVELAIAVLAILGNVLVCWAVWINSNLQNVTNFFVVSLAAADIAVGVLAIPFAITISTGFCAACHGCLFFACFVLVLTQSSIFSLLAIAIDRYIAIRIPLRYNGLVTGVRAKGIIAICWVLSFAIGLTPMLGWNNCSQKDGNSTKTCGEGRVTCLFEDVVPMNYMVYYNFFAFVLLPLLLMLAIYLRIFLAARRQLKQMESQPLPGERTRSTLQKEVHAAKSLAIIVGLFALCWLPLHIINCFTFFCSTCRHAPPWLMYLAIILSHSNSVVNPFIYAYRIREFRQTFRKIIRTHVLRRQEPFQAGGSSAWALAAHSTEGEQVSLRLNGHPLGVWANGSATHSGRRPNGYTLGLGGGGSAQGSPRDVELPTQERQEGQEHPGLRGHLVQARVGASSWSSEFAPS
In words: Radioligand binding, [3H]MSX-2 displacement in rat striatal membranes. To be noted: 0.75 nM [3H]MSX-2. The method, then: Male Wistar rats were sacrificed. The cerebral cortex and striatum were then removed and homogenized in 10 volumes of ice-cold 50 mM Tris–HCl buffer (pH 7.4). The homogenates were centrifuged (48,000 ×g) at 4°C for 10 min, the supernatant decanted, and the pellet resuspended in the same volume of buffer before being centrifuged again. The final pellets were resuspended in 50 mM Tris–HCl buffer containing adenosine deaminase (1.2 U per mg of protein) to remove endogenous adenosine.
Binding affinity at adenosine A2A receptors was tested in rat striatal membranes using 0.75 nM [^3H]MSX-2 (104.8 Ci/mmol). The binding assay was carried out in Tris–HCl buffer (50 mM, pH 7.4) as previously described, [12]. Briefly, assays were performed by first incubating the mixtures on a shaking water-bath at 25°C for 30 min. Termination of the incubation was performed by rapid filtration through GF/B glass fiber filters. The radioactivity on the filter was measured using a scintillation counter. […] Inhibition curves were determined using eight different concentrations ranging from 10^−5 to 10^−8 M. The inhibition constants (Ki) were calculated using an equation from Cheng and Prusoff.

For test [4], the system named is PTZ-induced seizures. In words: PTZ-induced seizures with adenosine receptor antagonist pretreatment. In kind it is in vivo, mice. To be noted: B2 5 mg/kg; PTZ 85 mg/kg; P<0.05. The method, then:
KA was dissolved in saline and the pH was adjusted to neutrality. The final concentration of KA was 0.7 µg/µl, and the convulsant dose was 1 µl (i.c.v.). […] The selective adenosine receptor antagonist DPCPX or SCH58261 was administered (i.p.) 5 min before administration of B2 or vehicle.
Twenty min later, mice were admdinistered with PTZ (85 mg/kg).

As a reminder, the Ki is a dissociation constant, usually derived from enzyme kinetics or from competition with a known ligand. For `COc1cc(CNc2ncnc3c2ncn3[C@@H]2O[C@H](CO)[C@@H](O)[C@H]2O)ccc1O` [B2, N^6-(3-methoxyl-4-hydroxybenzyl) adenine riboside], the Ki at A1 adenosine receptor came out at 420 nM; at A2A adenosine receptor it was 370 nM. The seizure occurrence amounted to 70% in the test with PTZ-induced seizures [1] (B2 1.25 mg/kg i.p.), 30% in the test with PTZ-induced seizures [1] (B2 5 mg/kg i.p.) and 50% in the test on PTZ-induced seizures [1] (B2 20 mg/kg i.p.). Also, the “latency to seizure onset prolonged by” value was 43% in the test with PTZ-induced seizures [1] (B2 1.25 mg/kg i.p.), 89% in the test on PTZ-induced seizures [1] (B2 5 mg/kg i.p.) and 93% in the test with PTZ-induced seizures [1] (B2 20 mg/kg i.p.). The entries for the “number of seizures reduced by” value in the test with PTZ-induced seizures [1] (B2 1.25 mg/kg i.p.), in the test with PTZ-induced seizures [1] (B2 5 mg/kg i.p.) and in the test with PTZ-induced seizures [1] (B2 20 mg/kg i.p.) were 39%, 70% and 62%, respectively. Also, in test [2], the “c-Fos expression in the hippocampus, times larger than vehicle control group” value was 1.5 times. For the same compound, the “PC12 cell survival in serum deprivation-induced apoptosis” value in the test with PC12 cell is recorded as “remarkably increased”. Besides, the “affinity for rat adenosine A2A receptors” value in test [3] is given as “moderate affinity”. Also, the “effect on latency to seizure onset” value with PTZ-induced seizures [4] is recorded as “significantly prolonged”.
